Laboratory results: patent EP0172962A1, “Prostaglandins” (ONO PHARMACEUTICAL CO., LTD., priority 1984, dated 1986)
Converted amounts (≈) assume the structure as drawn.

Experiments:
Acute toxicity = conditions: in vivo, iv; intravenously
ICR male mice = assay: Test on increase of white blood cell (hematological test); type: in vivo; conditions: 3 mg/kg i.p. once a day for 14 days, blood collected on the day following the final administration
Method: The experimental methods and results are described below. A solution of a compound of the present invention in ethanol was diluted with l% Tween 80 (registered Trade Mark) and the solution was intraperitoneally administered to ICR male mice of 6-7 weeks old once a day for 14 days. On the day following the final administration, the blood was collected by cardiac puncture with Anglot® (containing heparin and EDTA) as an anticoagulant. The blood was diluted with Seruento (registered Trade Mark), and the numbers of white blood cells and red blood cells were counted by a Micro Cell Counter (model CC-120).

[1] = test system: cells originated from human mouth tumour (KB-cells); assay: Test on inhibition of proliferation using cells originated from human mouth tumour (KB-cells); type: cell-based; conditions: 96 h, stationary culture at 37°C for 4 days, Trypan Blue staining, surviving cell number relative to control
Method: The experimental methods and the results are described below. Test on Inhibition of Proliferation Using Cells Originated
. The cells originated from human mouth tumour (KB-cells) were added to Eagle's MEM culture solution containing 10% bovine fetal serum, the number of cells in the culture solution was adjusted to 1 ×10^5 cells/ml, a solution in ethanol of compounds of the present invention was added to give a concentration of 5 µg/ml or below and the mixture was subjected to stationary culture at 37°C for 4 days. As a control, a culture solution containing 0.1% of ethanol was similarly cultured. After the culture, the cells were stained by the Trypan Blue staining method, and the surviving cell number was measured to determine the IC50 value from the degree of inhibition relative to the control.

Row | SMILES | IC50 [1] | further results
1 | CCCCC[C@H](O)/C=C/[C@H]1C(=O)C=C[C@@H]1C/C=C\CCCC(=O)NCCCNC(=O)CCC/C=C\C[C@H]1C=CC(=O)[C@@H]1/C=C/[C@@H](O)CCCCC [Example 1(e), N,N'-bis[(5Z,13E)-(15S)-11-oxo-15-hydroxy-prosta-5,9,13-trienoyl]trimethylenediamine] |  | LD50 (Acute toxicity): > 100 mg/kg; RBC (x10^4/mm^3) (ICR male mice; red blood cells): 793 ± 22.5 (p <0.001) x10^4/mm^3; WBC (x10^2/mm^3) (ICR male mice; white blood cells): 158 ± 17.0 (p <0.05) x10^2/mm^3
2 | CCCCC[C@H](O)/C=C/[C@H]1C(=O)C=C[C@@H]1C/C=C\CCCC(=O)NCCCCNC(=O)CCC/C=C\C[C@H]1C=CC(=O)[C@@H]1/C=C/[C@@H](O)CCCCC [Example 1(f)] | 1.17 mg/L (≈ 1.62 µM) | 
3 | CCCCC[C@H](O)/C=C/[C@H]1C(=O)C=C[C@@H]1C/C=C\CCCC(=O)NCCOC(=O)CCC/C=C\C[C@H]1C=CC(=O)[C@@H]1/C=C/[C@@H](O)CCCCC [Example 1(g)] | 1.8 mg/L (≈ 2.59 µM) | 
4 | CCCCC[C@H](O)/C=C/[C@H]1C(=O)C=C[C@@H]1C/C=C\CCCC(=O)OCCOC(=O)CCC/C=C\C[C@H]1C=CC(=O)[C@@H]1/C=C/[C@@H](O)CCCCC [Example 1(h)] | < 1 mg/L | 
5 | CCCCC[C@H](O)/C=C/[C@H]1C(=O)C=C[C@@H]1C/C=C\CCCC(=O)NCCNC(=O)CCC/C=C\C[C@H]1C=CC(=O)[C@@H]1/C=C/[C@@H](O)CCCCC [Example 1] | 0.87 mg/L (≈ 1.26 µM) | 
6 | CCCCC[C@H](O)/C=C/[C@H]1C(=O)C[C@H](O)[C@@H]1C/C=C\CCCC(=O)NCCCNC(=O)CCC/C=C\C[C@H]1[C@@H](O)CC(=O)[C@@H]1/C=C/[C@@H](O)CCCCC [Example 3(a)] | 1.9 mg/L (≈ 2.56 µM) | 
7 | CCCCCC=CC=C1C(=O)C=CC1CC=CCCCC(=O)NCCNC(=O)CCCC=CCC1C=CC(=O)C1=CC=CCCCCC (stereo not drawn) [Example 4] | 0.47 mg/L (≈ 0.715 µM) | 
